According to patent US20050215614A1, “Substituted indoles and their use as hcv inhibitors” (Rigel Pharmaceuticals, Inc., priority 2003, published 2005):

The molecules below were run on HCV replicon (assay: HCV Replicon Assay (luciferase, 5-2 Luc replicon cells)). Settings: 5-2 Luc replicon cells (Huh7), 24-48 hours with compound, luciferase counts.
Assay type: cell-based
In short: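 Huh7-derived 5-2 Luc replicon cells were seeded at 5000-7500 cells/well, grown 24 h at 37° C. and 5% CO2, then exposed to serial compound concentrations for 24-48 hours.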

Row | SMILES | Activity (concentration of inhibitory activity)
1 | Cc1cc2cc(NC(=O)C3CCCC3)ccc2n1C(=O)c1c(Cl)cccc1Cl [Compound 16a-1, 5-Cyclopentanecarbonylamino-1-(2′,6′-dichlorobenzoyl)-2-methylindole] | a (“a” indicates inhibitory activity at a concentration of less than 10 micromolar)
2 | Cc1cc2cc(NC(=O)C3CCCCC3)ccc2n1C(=O)c1c(Cl)cncc1Cl [Compound 265] | b (“b” indicates activity is at a concentration greater than 10 micromolar)
3 | Cc1cc2cc(NC(=O)C3CCNCC3)ccc2n1C(=O)c1c(Cl)cccc1Cl [Compound 266] | a (“a” indicates inhibitory activity at a concentration of less than 10 micromolar)
4 | Cc1cc2cc(NC(=O)C3CCCCC3)ccc2n1C(=O)c1c(Cl)cccc1Cl [Compound 267] | b (“b” indicates activity is at a concentration greater than 10 micromolar)
5 | Cc1cc2cc(NC(=O)[C@H]3CCCN3)ccc2n1C(=O)c1c(Cl)cccc1Cl [Compound 268] | b (“b” indicates activity is at a concentration greater than 10 micromolar)
6 | Cc1cc2cc(NC(=O)C3CCN(C(=O)OC(C)(C)C)CC3)ccc2n1C(=O)c1c(F)cccc1Cl [Compound 269] | b (“b” indicates activity is at a concentration greater than 10 micromolar)
7 | Cc1cccc(C)c1C(=O)n1c(C)cc2cc(NC(=O)[C@H]3CCCN3)ccc21 [Compound 270] | b (“b” indicates activity is at a concentration greater than 10 micromolar)
8 | Cc1cc2cc(NC(=O)[C@H]3CCCN3)ccc2n1C(=O)c1c(F)cccc1Cl [Compound 271] | b (“b” indicates activity is at a concentration greater than 10 micromolar)
9 | Cc1cc2cc(NC(=O)C3CCCNC3)ccc2n1C(=O)c1c(F)cccc1Cl (centres unmarked) [Compound 272] | b (“b” indicates activity is at a concentration greater than 10 micromolar)
10 | Cc1cc2cc(NC(=O)C3CCNCC3)ccc2n1C(=O)c1c(F)cccc1Cl [Compound 273] | b (“b” indicates activity is at a concentration greater than 10 micromolar)
11 | CCc1ccc(C(=O)n2c(C)cc3cc(NC(=O)C4CCCC4)ccc32)cc1 [Compound 274] | b (“b” indicates activity is at a concentration greater than 10 micromolar)
12 | Cc1cc2cc(NC(=O)C3CCCC3)ccc2n1C(=O)c1cc(Cl)cc(Cl)c1 [Compound 275] | b (“b” indicates activity is at a concentration greater than 10 micromolar)
13 | Cc1cc2cc(NC(=O)C3CCCC3)ccc2n1C(=O)c1ccc(Cl)cc1 [Compound 276] | b (“b” indicates activity is at a concentration greater than 10 micromolar)
14 | Cc1ccccc1C(=O)n1c(C)cc2cc(NC(=O)C3CCCC3)ccc21 [Compound 277] | b (“b” indicates activity is at a concentration greater than 10 micromolar)
15 | CC(C)(C)c1cc2cc(NC(=O)c3ccc(C(F)(F)F)cc3)ccc2[nH]1 [Compound 278] | a (“a” indicates inhibitory activity at a concentration of less than 10 micromolar)
16 | CC(C)(C)c1cc2cc(NC(=O)c3cc(Cl)nc(Cl)c3)ccc2[nH]1 [Compound 279] | a (“a” indicates inhibitory activity at a concentration of less than 10 micromolar)
17 | COc1cc(C(=O)Nc2ccc3[nH]c(C(C)(C)C)cc3c2)cc(OC)c1OC [Compound 280] | b (“b” indicates activity is at a concentration greater than 10 micromolar)
18 | CC(C)(C)c1cc2cc(NC(=O)c3cccs3)ccc2[nH]1 [Compound 281] | a (“a” indicates inhibitory activity at a concentration of less than 10 micromolar)
19 | CCC(C)(C)c1cc2cc(NC(=O)C(C)(C)C)ccc2[nH]1 [Compound 282] | b (“b” indicates activity is at a concentration greater than 10 micromolar)
20 | CCC(C)(C)c1cc2cc(NC(=O)/C=C/c3ccccc3)ccc2[nH]1 [Compound 283] | b (“b” indicates activity is at a concentration greater than 10 micromolar)
21 | CCC(C)(C)c1cc2cc(NC(=O)c3ccc(C(C)(C)C)cc3)ccc2[nH]1 [Compound 284] | b (“b” indicates activity is at a concentration greater than 10 micromolar)
22 | CCC(C)(C)c1cc2cc(NC(=O)c3c(F)cccc3F)ccc2[nH]1 [Compound 285] | a (“a” indicates inhibitory activity at a concentration of less than 10 micromolar)
23 | CCC(C)(C)c1cc2cc(NC(=O)c3cccc(C(F)(F)F)c3)ccc2[nH]1 [Compound 286] | a (“a” indicates inhibitory activity at a concentration of less than 10 micromolar)
24 | CCC(C)(C)c1cc2cc(NC(=O)C(c3ccccc3)c3ccccc3)ccc2[nH]1 [Compound 287] | b (“b” indicates activity is at a concentration greater than 10 micromolar)
25 | CCC(C)(C)c1cc2cc(NC(=O)c3cccs3)ccc2[nH]1 [Compound 288] | b (“b” indicates activity is at a concentration greater than 10 micromolar)
26 | CCC(C)(C)c1cc2cc(NC(=O)c3cc(Cl)nc(Cl)c3)ccc2[nH]1 [Compound 289] | a (“a” indicates inhibitory activity at a concentration of less than 10 micromolar)
27 | CC(C)(C)c1cc2cc(NC(=O)C3CC3)ccc2[nH]1 [Compound 290] | a (“a” indicates inhibitory activity at a concentration of less than 10 micromolar)

Each molecule was assayed on HCV replicon (assay: Immunoblotting Assay (9-13 replicon cells)). Settings: 9-13 replicon cells (Huh7), 48 hours with compound.
Assay type: cell-based
Experimental: Actively dividing 9-13 replicon cells (Huh7 cells comprising an HCV replicon) were seeded at the density of 1×10^5 cells/well in the volume of 2 ml/well into 6 well plate(s). The cells were then incubated at 37° C. and 5% CO2 for 24 hours.
Various concentrations of compounds (in the volume of 10 μl) were added into each well 24 hours after seeding the cells. The cells were incubated with the compounds for another 48 hours.
Protein samples were prepared from the cultured cells and resolved on a SDS-PAGE gel.
After electrophoresis, the protein samples on the SDS-PAGE gel were transferred to a nitrocellulose membrane.
The membrane was blocked with 5% non-fat milk in PBS for 1 hr at room temperature.
Primary antibody incubation was performed for 1 hour at room temperature before the membrane was washed for 3 times with PBST (PBS plus 0.1% Tween 20), 15 minutes each.
Horse Radish Peroxidase conjugated secondary antibody incubation was performed for 1 hour at room temperature before the membrane was washed for 3 times with PBST (PBS plus 0.1% Tween 20), 15 minutes each.
The membrane was then soaked in substrate solution (Pierce) and exposed to a film.

Row | SMILES | Activity (concentration of inhibitory activity)
28 | CC(C)(C)c1cc2cc(NC(=O)c3cccs3)ccc2[nH]1 [Compound 281] | a (“a” indicates inhibitory activity at a concentration of less than 10 micromolar)

These molecules were tested on HCV replicon (assay: TaqMan RT-PCR Assay (9-13 replicon cells)). Settings: 24-48 hours with compound.
Assay type: cell-based
Experimental: Actively dividing 9-13 replicon cells were seeded at the density of 3×10^4 cells/well in the volume of 1 ml/well into 24 well plate(s). The cells were then incubated at 37° C. and 5% CO2 for 24
Various concentrations of compounds (in the volume of 10 μl) were added into each well 24 hours after seeding the cells. The cells were incubated with the compounds for another 24-48 hours.
After incubating the 9-13 replicon cells with the compounds for 24-48 hours, media were aspirated off and RNA samples were prepared from each well.
TaqMan® (Roche Molecular Systems) one step RT-PCR was performed using the RNA samples according to the manufacturer's manual. Briefly, properly diluted RNA sample, upstream primer, downstream primer, FAM-labeled probe oligo were mixed and water was added to make up the volume to 25 μl. Equal volume of 2× TaqMan Master Mix were added and the reaction was performed in an ABI Prism 7700 Sequence Detector (Applied Biosystems).

Row | SMILES | Activity (concentration of inhibitory activity)
29 | Cc1cc2cc(NC(=O)C3CCCC3)ccc2n1C(=O)c1c(Cl)cccc1Cl [Compound 16a-1, 5-Cyclopentanecarbonylamino-1-(2′,6′-dichlorobenzoyl)-2-methylindole] | a (“a” indicates inhibitory activity at a concentration of less than 10 micromolar)
